Experimental data taken from PMC8399565, “Fluorescence Cross-Correlation Spectroscopy Yields True Affinity and Binding Kinetics of Plasmodium Lactate Transport Inhibitors” (Pharmaceuticals, 2021).
“Also recorded” adds a separate entry of the source. Read-outs that look alike come from different tables or passages of the source.

Assays:
PfFNT wt-GFP = molecular target: T1, PfFNT wt-GFP (Plasmodium falciparum, UniProt O77389); test: FCCS equilibrium saturation binding to solubilized PfFNT wildtype; details: for Active Receptor (%): fraction of PfFNT-GFP involved in binding at saturation; for obtained concentration of complexes in saturation binding: same sample of solubilized membranes for both tracers
T1 construct: The DNA of full-length PfFNT from Plasmodium falciparum 3D7 was cloned as a C-terminal GFP fusion; expressed in transfected cells; intact cells for imaging, LMNG-solubilized membranes or lysates for FCCS
Experimental: A total of 20 µL of solubilized membranes from HEK cells expressing PfFNT wildtype or G107S were transferred to a glass-bottom 384-well microtiter plate and analyzed for expression levels via GFP fluorescence intensity as well as diffusion times. This yielded a PfFNT protein concentration of 10 nM after membrane preparation and solubilization. The average dwell time was determined to 373 µs, which is in good agreement with membrane proteins of equal size. The signal fluctuations could be fitted to a 1-component diffusion model, indicating homogeneously monodisperse proteins (Figure S2).
Next, we determined inhibitor binding affinities for both PfFNT and its G107S mutant. Solubilized cell membranes containing PfFNT-GFP at a concentration of 10 nM were incubated for 1 h at ambient temperature with increasing concentrations of labeled inhibitor molecules to obtain saturation binding curves and to calculate the dissociation constant (KD) of the interactions. Equilibrium binding experiments were pipetted in biological triplicates and carried out and analyzed as described in Antoine et al..
A cell pellet was resuspended in 1 mL of ice-cold TBS (50 mM Tris-HCl (pH 7.4) and 150 mM NaCl) supplemented with cOmplete™ Protease Inhibitor Cocktail (cat. no 11697498001, Roche, Switzerland) and broken by sonication on ice, using an Ultrasonic homogenizer SONOPULS HD 2070 (Bandelin, Germany). Cell debris was removed by centrifugation for 5 min at 1100× g at 4 °C, and membranes were harvested from the cleared lysate by subsequent centrifugation at 21,000× g. The resulting pellet containing cellular membranes was lysed using a Dounce homogenizer. The receptor was solubilized by incubation in 1% LMNG (cat. no NG310, Anatrace, USA) or in another detergent (DDM, DM, CHAPS, CHS, LDAO) when conducting tests to determine the best solubilization conditions. The insolubilized membrane material was removed by centrifugation for 1 h at 21,000× g at 4 °C, and the supernatant was collected and directly subjected to FCCS analysis or stored at −80 °C.
(§1) FCCS measurements were conducted in 384-well glass-bottom plates (cat. no PS96B-G175, SWISSCI, Switzerland) using an Insight plate reader (Evotec Technologies, Germany) fitted with a U-Apo300 40x water immersion lens, NA 1.15 (Olympus, Japan). The 488 nm laser line of an argon-ion laser and the light of a 633 nm helium–neon laser were used for excitation. Fluorescence fluctuations were recorded for 8 s with 12 repetitions and analyzed afterward using FCS+plus Analyze 1.1P (Evotec technologies, Version 1.2.5g). FCCS analysis was carried out as described previously. Briefly, for measuring the dissociation constant (KD), a titration series of 12 dilutions was prepared, where the concentration of the lysates obtained from HEK cells expressing GFP-fusions of PfFNT WT and G107S was kept constant, and the concentration of the labeled binding partner (BH296-DY647 and BH267.meta-DY647, respectively) was varied. The IC50 values were calculated by plotting the concentration from the dual labeled complex against the concentration of the competitor titrated over a concentration range from 10 µM to 10 pM. Samples were incubated for 1 h at room temperature prior to FCCS measurements to allow the formation of drug target complexes. From the resulting IC50 values, the Ki values were obtained by application of the Cheng Prusoff equation [17]. To assess the rate constants, time-resolved measurements were carried out at different concentrations of the labeled ligand. […] All KD and IC50 values, as well as kinetic parameters, were determined from three independently repeated experiments. The figures show one representative measurement; however, the calculated KD, Ki, kon and koff values are presented as an average of the three measurements ± SD. Error bars denote ± SEM.

[1] = system: FNT-type lactate transporters of the remaining four human-pathogenic plasmodia; details: cited from earlier work
PfFNT G107S-GFP = molecular target: T2, PfFNT G107S-GFP (Plasmodium falciparum, UniProt O77389, G107S); test: FCCS equilibrium competition binding, PfFNT G107S mutant
T2 construct: The DNA of full-length PfFNT from Plasmodium falciparum 3D7 was cloned as a C-terminal GFP fusion; expressed in transfected cells; intact cells for imaging, LMNG-solubilized membranes for FCCS
Experimental: Figure 4 Affinity determination of BH296, BH267.meta to PfFNT and PfFNT G107S, and equilibrium saturation binding of BH296 and BH267.meta to PfFNT and PfFNT G107S. […] BH267.meta bound to 100% of the GFP-fusions of wildtype PfFNT. […] (c) Membrane preparations containing 10 nM of PfFNT-GFP were incubated with 70 nM BH296-DY647, and associated complexes competed with free compounds BH267.meta and BH296 to assess their Ki values. […] (e) Membrane preparations containing GFP fusions of mutant PfFNT G107S were mixed with 150 nM of the labeled BH267.meta tracer and competed with BH267.meta and BH296.
The Ki values calculated for the interaction of BH296 and BH267.meta to mutant PfFNT G107S confirm the affinities observed for the direct interaction with labeled inhibitors.
as §1, with “varied.” for “varied. The IC50 values were calculated by plotting the concentration from the dual labeled complex against the concentration of the competitor titrated over a concentration range from 10 µM to 10 pM. Samples were incubated for 1 h at room temperature prior to FCCS measurements to allow the formation of drug target complexes. From the resulting IC50 values, the Ki values were obtained by application of the Cheng Prusoff equation [17]. To assess the rate constants, time-resolved measurements were carried out at different concentrations of the labeled ligand.”, “Error bars denote ± SEM.” left out

hsMCT4 = molecular target: T3, hsMCT4 (Homo sapiens, UniProt O15427); test: Live cell confocal imaging, co-localization with hsMCT4-GFP in HEK cells; assay type: cell-based; details: 50 nM BH296-DY647, hsMCT4-GFP in HEK cells
T3 construct: expressed in transfected cells
T3 sequence (O15427 1-465): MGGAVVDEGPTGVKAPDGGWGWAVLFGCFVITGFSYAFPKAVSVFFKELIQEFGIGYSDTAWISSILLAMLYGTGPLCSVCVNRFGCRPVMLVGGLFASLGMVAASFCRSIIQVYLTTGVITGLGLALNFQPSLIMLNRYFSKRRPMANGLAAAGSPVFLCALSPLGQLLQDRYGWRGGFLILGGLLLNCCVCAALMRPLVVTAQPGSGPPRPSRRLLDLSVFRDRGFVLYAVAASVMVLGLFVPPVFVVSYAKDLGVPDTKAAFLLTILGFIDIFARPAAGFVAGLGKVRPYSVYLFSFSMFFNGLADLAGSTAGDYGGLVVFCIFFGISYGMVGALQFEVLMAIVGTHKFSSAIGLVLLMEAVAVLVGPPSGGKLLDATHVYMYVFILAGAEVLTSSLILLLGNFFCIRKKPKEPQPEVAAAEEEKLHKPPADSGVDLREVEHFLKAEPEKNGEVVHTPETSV
Experimental: The monocarboxylate transporter hsMCT4 is a human functional homolog of PfFNT, but both proteins show no similarity on the basis of their primary sequence or transport mechanism.
The confocal laser scanning microscopy was performed on an LSM 510 confocal microscope connected to an Axiovert 200M equipped with a C-Apochromat 40×/1.2 W water immersion objective (Carl Zeiss, Germany). The red fluorophore (Dy-647) was excited using a 633 nm helium–neon laser, whereas the green fluorophore (GFP) was excited using a 488 nm argon-ion laser.

T1 sequence (O77389 whole entry, the tested form may be a part): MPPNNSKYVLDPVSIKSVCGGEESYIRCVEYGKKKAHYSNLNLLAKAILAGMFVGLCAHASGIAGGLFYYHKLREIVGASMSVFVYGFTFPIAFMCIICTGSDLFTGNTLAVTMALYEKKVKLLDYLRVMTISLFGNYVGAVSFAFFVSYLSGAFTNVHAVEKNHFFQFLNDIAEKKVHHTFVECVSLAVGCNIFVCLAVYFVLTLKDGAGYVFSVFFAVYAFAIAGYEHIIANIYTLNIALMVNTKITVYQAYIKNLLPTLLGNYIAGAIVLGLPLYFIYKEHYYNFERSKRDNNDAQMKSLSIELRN
T2 sequence (O77389 whole entry G107S, the tested form may be a part): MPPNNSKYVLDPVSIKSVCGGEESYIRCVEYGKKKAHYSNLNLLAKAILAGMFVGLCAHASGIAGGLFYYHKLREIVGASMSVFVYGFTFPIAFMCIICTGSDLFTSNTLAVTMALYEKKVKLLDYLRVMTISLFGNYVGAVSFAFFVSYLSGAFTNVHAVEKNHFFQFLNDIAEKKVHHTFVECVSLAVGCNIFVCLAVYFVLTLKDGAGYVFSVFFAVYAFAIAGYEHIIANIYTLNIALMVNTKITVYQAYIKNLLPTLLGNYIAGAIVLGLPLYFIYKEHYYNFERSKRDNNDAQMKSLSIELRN

Structure (SMILES)	Kd (PfFNT wt-GFP)	Active Receptor (%) (PfFNT wt-GFP)	Kd (PfFNT wt-GFP; fluorescent probe titrated against 10 nM PfFNT-GFP, 1% LMNG, 1 h ambient temperature, read-out: KD (equilibrium saturation binding))	obtained concentration of complexes in saturation binding (PfFNT wt-GFP)	concentration blocking FNT-type lactate transporters [1]	Ki (PfFNT G107S-GFP; fluorescent probe BH267.meta-DY647 150 nM, competitor up to 10 µM, read-out: Ki Competitor)	Ki (PfFNT G107S-GFP)	Ki Competitor (PfFNT G107S-GFP; fluorescent probe BH267.meta-DY647 150 nM, competitor up to 10 µM)	co-localization on the plasma membrane (hsMCT4)
CCN1/C(=C/C=C/C=C/C2=[N+](CC)c3ccc(S(=O)(=O)O)cc3C2(C)CCCC(=O)NCCOCCOCCOCCOCCC(=O)NCCCOc2ccc(C(=O)/C=C(\O)C(F)(F)C(F)(F)F)cn2)C(C)(C)c2cc(S(=O)(=O)[O-])ccc21 (stereo not shown) [BH267.meta-DY647]	72 nM	100%							
O=C(/C=C(\O)C(F)(F)C(F)(F)F)c1cccnc1 [BH267.meta]		100%	72 nM	6 nM	sub-micromolar	417 ± 16 nM			
O=C(C=C(O)C(F)(F)C(F)(F)F)c1ccc(O)cc1 [BH296, 4,4,5,5,5-pentafluoro-3-hydroxy-1-(4-hydroxyphenyl)pent-2-en-1-one]	67 nM			3 nM			> 10000 nM	did not compete; also recorded: does not interfere	
CCN1/C(=C/C=C/C=C/C2=[N+](CC)c3ccc(S(=O)(=O)O)cc3C2(C)CCCC(=O)NCCOCCOCCOCCOCCC(=O)NCCCOc2ccc(C(=O)/C=C(\O)C(F)(F)C(F)(F)F)cc2)C(C)(C)c2cc(S(=O)(=O)[O-])ccc21 (stereo not shown) [BH296-DY647]	67 ± 6 nM								did not show any co-localization
